Results on four molecules are retold here after article PMC7524946, “[^11C]mHED PET follows a two-tissue compartment model in mouse myocardium with norepinephrine transporter (NET)-dependent uptake, while [^18F]LMI1195 uptake is NET-independent” (EJNMMI Research, 2020).

Values joined by “and” are separate entries in the source; they are usually repeats but may differ in a detail not shown here. Identical values can stand only once. “Also recorded” adds a separate entry of the source. Like-named read-outs stand apart in the source and are kept apart here.

For data set [1], the system named is myocardium. The arrangement: method as in PMID 27230922. To be noted: humans, recent PET study; cited from earlier work.
For data set [2] the following is noted: after [^11C]mHED i.v. injection.
Experimental: Mice were injected awake with formulated [^11C]mHED (26–173 MBq) via the tail vein. Animals were anaesthetized with 5% isoflurane in oxygen/air (1:1) and euthanized by decapitation at the indicated time points to collect blood, urine, and heart tissue. Plasma was separated from blood by centrifugation (5000×g for 5 min at 4 °C). Plasma and urine were each mixed with equal volumes of ice-cold acetonitrile (MeCN) for protein precipitation. The dissected heart was homogenized in 2 ml PBS, and proteins were precipitated with 2 ml ice-cold MeCN. The samples were centrifuged (5000×g, 4 °C), and the supernatants were filtered and analysed by radio-UPLC (Waters Acquity UPLC HSS T3 1.8 µm) with the following separation conditions: 10 mM NH4HCO3 (solvent A), MeCN (solvent B); 0.0–1.0 min, 5–30% B; 1.0–1.7 min, 30% B; 1.7–1.8 min, 30–5% B and 1.8–3.0 min, 5% B at a flow rate of 0.5 ml/min (retention time: 1.75 min). The fraction of parent tracer radioactivity to total radioactivity in plasma (fparent) was calculated as the ratio of radioactivity in the [^11C]mHED peak and total detected radioactivity in the chromatogram.
In Eq. 1, q1 to q4 are the fit parameters (q3 was estimated and fixed) and t is the time. Equation 1 was empirically defined, taking into account the exponential functions of time under linear kinetics and a lag phase for metabolite formation.
In data set [3] the test system is NET. The arrangement: method as in PMID 20679472, PMID 9290077. To be noted: mouse myocardium; cited from earlier work.
For data set [4], the target named is T1, norepinephrine transporter (NET) (Mus musculus, UniProt O55192).
T1 construct: from tissue; host or cells: myocardium (sympathetic nerve terminals) of living FVB/N mice, in vivo PET/CT
Nature of the data set: Dose dependency of myocardial [^11C]mHED uptake by PET/CT (NET saturation). It is filed as in vivo, FVB/N mice. The following applies: mouse myocardium. As for the experimental part:
(§1) PET/computed tomography (CT) scans were performed with a calibrated SuperArgus PET/CT scanner (Sedecal, Madrid, Spain) with an axial field of view of 4.8 cm and a spatial resolution of 1.6–1.7 mm (full width at half maximum). Animals were under anaesthesia with ~ 2.5% isoflurane in oxygen/air (1:1) for tracer injection into the tail vein and during the scan. […] For scans without kinetic modelling, tracer was injected into mouse tail vein on scanner bed and the scan was started 1 min p.i. For kinetic modelling, [^11C]mHED was injected using the shunt system (see “Input function” section) on the scanner bed. Depth of anaesthesia was monitored by measuring the respiratory rate (SA Instruments, Inc., Stony Brook, USA). Body temperature was monitored by a rectal probe and kept at 37 °C by a heated air stream (37 °C). […] PET scans were followed by a CT for anatomical orientation.
For quantitative analyses, PET data in NIfTI file format were read with the R package oro.nifti version 0.9.1, and a cube of 36 × 30 × 30 voxels (8.7 × 7.3 × 7.3 mm^3) including the heart as judged from the PET and CT data was cropped. A liver mask was defined including all voxels with a slope ≥ − 0.012 SUV/min between 11 and 48 min p.i. (the slope limit was empirically defined by visual inspection of the results, Fig. 1). PET data corresponding to the liver mask were excluded. The myocardium mask was defined from the remaining data as the volume with highest SUV between 3 and 11 min p.i., corresponding to 0.5% of the individual body weight. Average SUV was calculated for the indicated time windows (stated as SUVstart time–end time). The SUV of the neck region was obtained from a spherical region of interest with 3 mm radius, placed over the shoulders, close to the spine.
The dose of combined administered [^11C]mHED and metaraminol (precursor for radiosynthesis) at half-maximal NET saturation in nmol/kg (D50) was calculated from the myocardial SUV1–31 min at various doses (D). […] Fit parameters were SUV1–31 min at indefinitely low dose (SUVmax), SUV1–31 min at full NET saturation, i.e. SUV1–31 min for nondisplaceable tracer (SUVmin) and D50, according to Eq. 3 which was fit to the data with the function nls of R.3 SUV1-31min=SUVmax-SUVmin×D50/D50+D+SUVmin

Data set [5] relates to mouse myocardium. Description: [^11C]mHED PET kinetic (compartment) modelling with arteriovenous shunt input function. It counts as in vivo, FVB/N mice. To be noted: mean of 3 scans (SD). As for the experimental part:
as §1
For kinetic modelling, an arteriovenous shunt system was applied to record the coincidences of arterial blood (Twilite, Swisstrace, Zurich, Switzerland) simultaneously with the PET data acquisition (Additional file 1). The resulting blood coincidences were transformed to Bq/ml with a calibration factor determined from simultaneous measurements of an [^11C]mHED solution in the PET scanner and the blood counter. Next, the blood Bq/ml was multiplied with fitted Eq. 2 to calculate the plasma activity concentration. Finally, the plasma Bq/ml was multiplied with fitted Eq. 1 to receive the parent tracer Bq/ml in plasma, which is the input function.
PET kinetic modelling with R was performed with a one- and three two-tissue compartment models according to Eq. 4,4 CPET=1-vb×Wmodel⊗Ca+vb×Cb where CPET is the activity concentration in the PET image, either as kBq/cm^3 or normalised as SUV, vb is the partial volume of blood in the region-of-interest (potentially including interstitial space), Wmodel is the model-dependent weighting function. Ca is the parent tracer activity concentration in the arterial plasma (input function, kBq/ml, or SUV), and Cb is the whole blood activity concentration as calculated from the blood coincidences, in kBq/cm^3 or as SUV.
WTCM1 for the one-tissue compartment model (TCM1, Fig. 2a) corresponds to K1 × exp(− k2 × t), with t as time, K1 and k2 the clearance term from plasma to tissue and rate constant back, respectively. WTCM2p and WTCM2s for the two-tissue compartment models with parallel (TCM2p, Fig. 2b) and serial (TCM2s, Fig. 2c) tissue compartments, respectively, were according to Eqs. 5–10 [16]. In the case of the TCM2p, K1, k2, K3, and k4 correspond to φ1, θ1, φ2, and θ2, respectively, of Eq. 5. WTCM2v for the two-tissue compartment model in Fig. 2d (TCM2v) was numerically solved from the differential equation system in Eqs. 11 and 12 with the R package deSolve and the ode function, with 1-s time intervals.
Besides the transfer clearance or rate constants K1, k2, k3 (or K3 for TCM2p), and k4, vb was included as a parameter to fit. Equation 3 was fit to the experimental TACs applying the optim minimization function of R.
Fits were run with multiple starts with a matrix of 101 sets of random start parameters between lower and upper limits for K1, k2, k3 (or K3), k4, and vb (Additional file 1: Table S1). The activity concentrations in the individual tissue compartments were simulated by numerically solving the respective differential equation systems for TCM2s and TCM2v and from the analytical solutions for TCM2p (the two exponential terms of Eq. 5). Calculations were performed in parallel on a 32 core workstation. Best fits were chosen based on the sum of squared residues (SSR) between predicted and experimental TACs. […] Correlations between parameters were calculated with the lm, cor, and cor.test functions of R and were considered significant at p < 0.05.

In data set [6] the target is T1, norepinephrine transporter (NET). Nature of the data set: PET/CT myocardial tracer uptake with desipramine blocking (specificity for NET). It is filed as in vivo, FVB/N mice. To be noted: 20 mg/kg desipramine HCl i.p. 10 min before tracer i.v. On the procedure: as §1
Two [^11C]mHED scans (one baseline, one for kinetic modelling) were excluded from further analysis due to technical problems before or during the scan, respectively (not included in Table 1). […] Tissue radioactivity was either expressed as kBq/cm^3 or normalized to the injected dose per g body weight (kBq/g) and expressed as SUV, assuming a tissue density of 1 g/cm^3. […]

How the values of data set [7] were obtained:
For determining activity concentration ratios of plasma to whole blood in mice, 11–90 MBq [^11C]mHED were injected intravenously (i.v.) via the tail vein in awake mice. After anaesthesia, animals were euthanized at the indicated time points and blood was collected. An aliquot was centrifuged as described above to separate plasma from blood cells. Plasma and whole blood activity concentrations (Bq/ml) were determined by a gamma counter (Wizard 1480; Perkin Elmer) to calculate the plasma/whole blood activity concentration ratio (ρplasma/blood). Bi-exponential function (Eq. 2) was fit to ρplasma/blood over time using the nls function of R.2 ρplasma/blood=r1×exp-r3×t-r2×exp-r4×t+r2
In Eq. 2, r1 to r4 are the fit parameters and t is the time.

The test system of data set [8] is NET. The following applies: cited from earlier work; for D50: rat left ventricle wall.
In data set [9] the test system is NET. The arrangement: method as in PMID 21555377, PMID 23601914. To be noted: rats; cited from earlier work.
Data set [10] concerns NET. The arrangement: method as in PMID 21555377, PMID 23601914. To be noted: human subjects; cited from earlier work.
In data set [11] the test system is NET. The arrangement: method as in PMID 21555377, PMID 23601914. The following applies: nonhuman primates; cited from earlier work.
Data set [12] concerns NET. The arrangement: method as in PMID 21555377, PMID 23601914. To be noted: rabbits; cited from earlier work.
Setting [13] is: volume-of-interest 0.5% body volume.

T1 sequence (O55192 whole entry): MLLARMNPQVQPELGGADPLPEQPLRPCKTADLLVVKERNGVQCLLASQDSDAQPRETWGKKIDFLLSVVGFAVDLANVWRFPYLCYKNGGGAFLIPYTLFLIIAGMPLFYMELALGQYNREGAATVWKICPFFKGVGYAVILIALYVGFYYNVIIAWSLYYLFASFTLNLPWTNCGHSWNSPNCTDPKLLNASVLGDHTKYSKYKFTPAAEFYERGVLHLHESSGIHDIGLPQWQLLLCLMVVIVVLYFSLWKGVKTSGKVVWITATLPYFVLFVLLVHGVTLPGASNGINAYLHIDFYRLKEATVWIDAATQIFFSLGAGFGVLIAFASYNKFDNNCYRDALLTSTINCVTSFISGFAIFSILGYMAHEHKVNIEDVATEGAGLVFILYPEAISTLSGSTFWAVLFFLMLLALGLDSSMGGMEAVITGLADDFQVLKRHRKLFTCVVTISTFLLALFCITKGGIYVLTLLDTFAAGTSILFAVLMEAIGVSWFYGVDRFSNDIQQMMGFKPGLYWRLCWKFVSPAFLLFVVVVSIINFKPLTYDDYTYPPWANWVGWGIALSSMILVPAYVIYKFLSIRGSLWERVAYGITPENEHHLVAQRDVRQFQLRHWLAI

On to `C[C@H](N[11CH3])[C@H](O)c1cccc(O)c1` [[^11C]mHED, [^11C]meta-hydroxyephedrine], for which the “K1 of [^11C]mHED uptake” value in data set [1] is recorded as “up to 0.6 ml/min/g”. Besides, in data set [2] (mouse), the “Radiometabolite in plasma and urine” value is “detected a radiometabolite in plasma and urine”. Further, the Radiometabolite in myocardium result in data set [2] (mouse heart extract) was “no radiometabolite were detected”. Also, the “Reported D50” value in data set [3] was 132 nmol/kg; in data set [8] (rat myocardium), 91 nmol/kg. Moreover, the “D50 (dose of combined [^11C]mHED and metaraminol at half-maximal NET saturation)” value in [4] (from SUV1–31 min, fit Eq. 3, n = 14 scans) was 88.3 nmol/kg. Also, the “D50 (dose at half-maximal NET saturation)” value in data set [4] (from SUV1–61 min (complete scan duration)) is listed as 89.1 nmol/kg. For the same molecule, the “Fit SUVmax (SUV1–31 min at indefinitely low dose)” value in data set [4] (setting [13]) was 4.4. Besides, in data set [4] (setting [13]), the “Fit SUVmin (SUV1–31 min at full NET saturation, nondisplaceable tracer)” value turned out to be 1.0. Besides, the K1 in [5] (TCM1) was 0.87 ± 0.11 ml/min/cm^3 and 0.868 (0.113) ml/min/cm^3; in [5] (TCM2p) it was 0.499 (0.153) ml/min/cm^3; in data set [5] (TCM2s) it was 0.947 ± 0.146 ml/min/cm^3 and 0.947 (0.146) ml/min/cm^3; in data set [5] (TCM2v), 0.947 ± 0.146 ml/min/cm^3 and 0.947 (0.146) ml/min/cm^3. Moreover, the k2 is listed as 0.029 (0.01) 1/min in [5] (TCM1), 0.0125 (0.0034) 1/min in [5] (TCM2p), 0.0672 (0.0062) 1/min in [5] (TCM2s) and 0.0672 (0.0062) 1/min in data set [5] (TCM2v). Besides, the K3 in [5] (TCM2p) was 0.448 (0.114) ml/min/cm^3. For the same molecule, the k4 is recorded as 0.134 (0.040) 1/min in data set [5] (TCM2p), 0.0254 (0.0117) 1/min in data set [5] (TCM2s) and 0.0125 (0.0034) 1/min in [5] (TCM2v). For the same molecule, the k3 in [5] (TCM2s) was 0.0541 (0.0263) 1/min; in data set [5] (TCM2v), 0.0669 (0.0344) 1/min. The “Blocking of myocardial tracer uptake by desipramine” value in data set [6] is given as “significantly reduced; also recorded: blocking effect was observed”. Besides, the “ρplasma/blood (plasma/whole blood activity concentration ratio)” value is given as ~ 0.6 in data set [7] (at 3 min); ~ 1 in data set [7] (constant value from ~ 20 min onwards); 1.85 in data set [7] (time t = 0, assumed 1/(1-Hkt), hematocrit 0.458).

As to `C[C@H](N)[C@H](O)c1cccc(O)c1` [metaraminol], the D50 in data set [8] is 90 to 100 nmol/kg.

Turning to `CNC(C)C(O)c1cccc(O)c1` (stereo not shown) [mHED, meta-hydroxyephedrine], in data set [8], the D50 is 90 to 100 nmol/kg.

With `N=C(N)NCc1ccc(OCCC[18F])c(Br)c1` [[^18F]LMI1195, [^18F]flubrobenguane], the “Desipramine sensitivity of cardiac uptake” value in data set [9] is recorded as “not in rats”; in [10], “desipramine-sensitive”; in data set [11], “desipramine-sensitive”; in data set [12] it was “desipramine-sensitive”. The “Blocking of myocardial tracer uptake by desipramine” value in data set [6] is “not”.
